From PubChem BioAssay AID1996
≈ marks a conversion by molar mass, not a printed value.

Settings: buffer; pH 7.4; 200.0 µM

| Structure (SMILES) | solubility kinetic [µg/mL] |
| --- | --- |
| O=c1[nH]c(C(F)(F)F)nc2ccc3ccccc3c12 | > 39.6 |
| CC1CC(C)CN(C(=O)CSCC(=O)O)C1 (centres undefined) | > 36.8 |
| Cc1cc2oc(=O)cc(CN3CCOCC3)c2cc1Cl | 4.3 (≈ 14.6 µM) |
| COc1ccc(S(=O)(=O)n2cccc2)c(OC)c1 | 3.9 (≈ 14.6 µM) |
| CC(c1ccccc1)N1CC(C(=O)O)CC1=O (centres undefined) | > 35 |
| Cn1c(=O)[nH]c(=O)c2c1[nH]c(=S)n2Cc1ccc(Cl)cc1 | 42.3 (≈ 131 µM) |
| COc1ccc(C(=O)OCC(=O)NCC2CCCO2)c(F)c1 (centres undefined) | > 46.7 |
| Cn1c(/C(C#N)=C/c2ccc(O)cc2)nc2ccccc21 | 5.5 (≈ 20 µM) |
| CCOc1ccccc1NC(=O)NCCN1CCCCC1 | > 43.7 |
| N#CCC(=O)Nc1ccc(C(=O)OCC(=O)NC(=O)NCc2ccco2)cc1 | 17.4 (≈ 45.3 µM) |
| CCOc1cc(/C=C2/NC(=O)N(CC(=O)OC)C2=O)ccc1O | 14.8 (≈ 46.2 µM) |
| O=C(NCC1CCCO1)c1cnn2c(C(F)F)cc(C3CC3)nc12 (centres undefined) | > 50.5 |
| NC(=O)c1ccc(Nc2ccc3c(c2)CCC3)c([N+](=O)[O-])c1 | 2.6 (≈ 8.74 µM) |
| CN(C)c1cc(-c2ccc(F)cc2)oc(=O)c1Cl | 7.2 (≈ 26.9 µM) |
| COc1ccc(O)c(C(=O)c2cnc3c(c2)CN(C)C(=O)N3)c1 | 8 (≈ 25.5 µM) |
| C=CCC(C=C)[N+]1(CC(=O)OC)CCCCC1.[Br-] (centres undefined) | > 47.7 |

| Structure (SMILES) | solubility kinetic [µg/mL] |
| --- | --- |
| OC1(C#CCCN2CCCCC2)c2ccccc2-c2ccccc21 | > 47.6 |
| O=C(OCC(=O)N1CCc2ccccc2C1)c1ccc(F)cc1Cl | 37.2 (≈ 107 µM) |
| Cc1ccc2nc(SCC(=O)c3ccc(O)cc3O)[nH]c2c1 | 6.4 (≈ 20.4 µM) |
| O=C(C[n+]1ccc(/C=N/O)cc1)N1CCCCC1.[Cl-] | > 42.6 |
| CCCCCNS(=O)(=O)c1cc2c3c(c1)CCC(=O)N3CCC2 | 45.5 (≈ 135 µM) |
| Cc1cc(NS(=O)(=O)c2ccc(NC(=O)C3CCCCC3)cc2)no1 | 44.1 (≈ 121 µM) |
| CC(=O)N1CCc2ccccc2C1CC(=O)O (centres undefined) | 32.7 (≈ 140 µM) |
| COC(=O)C1=C2SCC(=O)N2C(N)=C(C#N)C1 | > 37.7 |
| CN(C)/C=N/S(=O)(=O)c1ccc(Cl)cc1 | 35.8 (≈ 145 µM) |
| O=C1COc2ccccc2N1Cc1ccc(Cl)cc1 | 10.3 (≈ 37.6 µM) |
| Clc1ccccc1Cc1noc(CN2CCN3CCCC3C2)n1 (centres undefined) | > 49.9 |
| Clc1ccc(C2Nc3cccc4cccc(c34)N2)cc1Cl | 0.4 (≈ 1.27 µM) |
| CCc1ccc(NC(=O)NC2CCCCCCC2)cc1 | < 0.3 |
| COc1cc(N)c(Cl)cc1C(=O)OCC(=O)NCC1CCCO1 (centres undefined) | > 51.4 |
| c1ccc(-c2cccc(-c3ccccc3)n2)cc1 | < 0.5 |
| C=CCSc1nc2c(c(-c3ccsc3)c1C#N)CN(C)CC2 | 23 (≈ 70.2 µM) |

Further lines, results first:

| solubility kinetic [µg/mL] | Structure (SMILES) |
| --- | --- |
| 16.1 (≈ 46.2 µM) | COCCN(C(=S)Nc1c(C)cccc1C)C(C)c1cccs1 (centres undefined) |
| 6 (≈ 22.4 µM) | Cc1ccc2cccc(OCc3ccc(F)cc3)c2n1 |
| 1.4 (≈ 4.11 µM) | CC(=O)c1ccc(OCC(=O)Nc2ccc3nc(C)sc3c2)cc1 |
| > 49.2 | COc1cc(/C=N/NC(=O)CNC(=O)c2ccncc2)ccc1O |
| < 0.4 | COc1cccc(/C=C/C(=O)OCC(=O)Nc2ccc(Cl)cn2)c1 |
| 4.5 (≈ 13.4 µM) | O=C(NC1CCSc2ccccc21)c1cccc(OC(F)F)c1 (centres undefined) |
| 35.5 (≈ 99.4 µM) | COc1ccc(S(=O)(=O)NCc2cccnc2)cc1Br |
| 1.3 (≈ 3.66 µM) | O=C(COc1ccc([N+](=O)[O-])cc1)Nc1ccccc1C(=O)NC1CC1 |
| 2.1 (≈ 7.71 µM) | COc1ccc(CNc2ccc([N+](=O)[O-])cc2C)cc1 |
| < 0.2 | COc1ccc(-c2csc(Nc3cc(C)ccn3)n2)cc1C |
| 6.3 (≈ 22.3 µM) | CCC(C)NC(=O)CN1C(=O)c2cccc3cccc1c23 (centres undefined) |
| 17.2 (≈ 57.1 µM) | COc1ccc(NC(=O)CCCSc2ccccc2)cc1 |
| > 47.9 | CCCNC(=O)CSc1nccn1Cc1ccc(OC)cc1 |
| 32.3 (≈ 123 µM) | O=C(Nc1cccc([N+](=O)[O-])c1)Nc1cccs1 |
| > 51.4 | COc1ccccc1NC(=O)CSc1nnc(-c2ccccn2)o1 |
| 31.8 (≈ 107 µM) | Cc1ccc(C(=O)N2CCN(c3cccc(C)c3C)CC2)o1 |
| > 50.5 | O=C(NCC(c1ccco1)N1CCOCC1)c1c(F)cccc1F (centres undefined) |
| 15.2 (≈ 49.2 µM) | Cc1ccc(C(=O)O/N=C(\N)Cc2cccs2)c(Cl)c1 |
| > 55.9 | COc1ccc(CCNC(=O)COC(=O)Cc2ccccc2[N+](=O)[O-])cc1 |
| > 50.9 | CC(NC(=O)c1ccc(S(=O)(=O)C(F)F)cc1)c1ccccc1 (centres undefined) |
| 0.4 (≈ 1.52 µM) | Cc1ccccc1/C=C/c1nc2ccccc2c(=O)[nH]1 |
| > 49 | Cc1cccc(OCC(=O)NCC(=O)N/N=C/c2cccnc2)c1 |
| > 30 | Cc1cccc(-c2nc(C)cc(=O)[nH]2)c1 |
| 9 (≈ 26.6 µM) | O=C(NCC(=O)N1CC=C(c2ccccc2)CC1)c1ccc(F)cc1 |
| 10.7 (≈ 29.2 µM) | COc1ccc(NC(=O)c2ccc(S(=O)(=O)N3CCOCC3)o2)cc1 |
| 37.8 (≈ 105 µM) | COc1cccc(CNC(=O)CCCNC(=O)c2ccc(Cl)cc2)c1 |
| 38.1 (≈ 121 µM) | COCCNCC(=O)N1c2ccccc2Sc2ccccc21 |
